# Measurements published in ChEMBL document CHEMBL1201862, “PubChem BioAssay data set” (2004).
#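 Exposure lasted 48 hours, with cells grown in 96-well plates and compounds tested at five concentrations. GI50 is the concentration that inhibits growth by half.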 Calls of active or inactive are those of the source. Rule as the data show it: active = GI50 up to about 1.1 µM and inactive = higher.
# Legend:
# Experiment in all cases: DTP human tumour cell line panel, 48 h
# 786-0 = test system: 786-0
# A549 = test system: A549
# ACHN = test system: ACHN
# CAKI-1 = test system: CAKI-1
# CCRF-CEM = test system: CCRF-CEM
# COLO 205 = test system: COLO 205
# DLD-1 = test system: DLD-1
# DMS-114 = test system: DMS-114
# DMS-273 = test system: DMS-273
# EKVX = test system: EKVX
# HCC 2998 = test system: HCC 2998
# HCT-116 = test system: HCT-116
# HCT-15 = test system: HCT-15
# HL-60 = test system: HL-60
# HOP-18 = test system: HOP-18
# HOP-62 = test system: HOP-62
# HT-29 = test system: HT-29
# IGROV-1 = test system: IGROV-1
# K562 = test system: K562
# KM-20L2 = test system: KM-20L2
# KM12 = test system: KM12
# LOX IMVI = test system: LOX IMVI
# LXFL 529 = test system: LXFL 529
# M14 = test system: M14
# M19-MEL = test system: M19-MEL
# MOLT-4 = test system: MOLT-4
# Malme-3M = test system: Malme-3M
# NCI-H226 = test system: NCI-H226
# NCI-H23 = test system: NCI-H23
# NCI-H460 = test system: NCI-H460
# NCI-H522 = test system: NCI-H522
# OVCAR-3 = test system: OVCAR-3
# OVCAR-4 = test system: OVCAR-4
# OVCAR-8 = test system: OVCAR-8
# RPMI-8226 = test system: RPMI-8226
# RXF 393 = test system: RXF 393
# SF-268 = test system: SF-268
# SF-295 = test system: SF-295
# SF-539 = test system: SF-539
# SK-MEL-28 = test system: SK-MEL-28
# SK-MEL-2 = test system: SK-MEL-2
# SK-MEL-5 = test system: SK-MEL-5
# SK-OV-3 = test system: SK-OV-3
# SN12C = test system: SN12C
# SNB-19 = test system: SNB-19
# SNB-75 = test system: SNB-75
# SNB-78 = test system: SNB-78
# SW-620 = test system: SW-620
# TK-10 = test system: TK-10
# U-251 = test system: U-251
# UACC-257 = test system: UACC-257
# UACC-62 = test system: UACC-62
# UO-31 = test system: UO-31
# XF498 = test system: XF498
# A498 = test system: A498
# HOP-92 = test system: HOP-92
# OVCAR-5 = test system: OVCAR-5
# RXF 631 = test system: RXF 631
compound,measurement,setting,value
O=C1SC(c2ccccc2)(c2ccccc2)c2ccccc21,GI50,786-0,> 100 µM (inactive)
same,GI50,A549,50.9 µM (inactive)
same,GI50,ACHN,34.3 µM (inactive)
same,GI50,CAKI-1,> 100 µM (inactive)
same,GI50,CCRF-CEM,94.6 µM (inactive)
same,GI50,COLO 205,> 100 µM (inactive)
same,GI50,DLD-1,52.8 µM (inactive)
same,GI50,DMS-114,26 µM (inactive)
same,GI50,DMS-273,> 100 µM (inactive)
same,GI50,EKVX,63.5 µM (inactive)
same,GI50,HCC 2998,> 100 µM (inactive)
same,GI50,HCT-116,> 100 µM (inactive)
same,GI50,HCT-15,> 100 µM
same,GI50,HL-60,41.3 µM (inactive)
same,GI50,HOP-18,> 100 µM (inactive)
same,GI50,HOP-62,> 100 µM (inactive)
same,GI50,HT-29,57.7 µM (inactive)
same,GI50,IGROV-1,> 100 µM (inactive)
same,GI50,K562,74.5 µM (inactive)
same,GI50,KM-20L2,46.8 µM (inactive)
same,GI50,KM12,66.8 µM (inactive)
same,GI50,LOX IMVI,> 100 µM (inactive)
same,GI50,LXFL 529,> 100 µM (inactive)
same,GI50,M14,64.6 µM (inactive)
same,GI50,M19-MEL,> 100 µM (inactive)
same,GI50,MOLT-4,82.8 µM (inactive)
same,GI50,Malme-3M,> 100 µM (inactive)
same,GI50,NCI-H226,> 100 µM (inactive)
same,GI50,NCI-H23,> 100 µM (inactive)
same,GI50,NCI-H460,69.7 µM (inactive)
same,GI50,NCI-H522,68.4 µM (inactive)
same,GI50,OVCAR-3,> 100 µM (inactive)
same,GI50,OVCAR-4,92.5 µM (inactive)
same,GI50,OVCAR-8,> 100 µM (inactive)
same,GI50,RPMI-8226,45.5 µM (inactive)
same,GI50,RXF 393,44.1 µM (inactive)
same,GI50,SF-268,> 100 µM (inactive)
same,GI50,SF-295,> 100 µM (inactive)
same,GI50,SF-539,> 100 µM (inactive)
same,GI50,SK-MEL-28,> 100 µM (inactive)
same,GI50,SK-MEL-2,> 100 µM (inactive)
same,GI50,SK-MEL-5,46.3 µM (inactive)
same,GI50,SK-OV-3,> 100 µM (inactive)
same,GI50,SN12C,> 100 µM (inactive)
same,GI50,SNB-19,> 100 µM (inactive)
same,GI50,SNB-75,> 100 µM (inactive)
same,GI50,SNB-78,> 100 µM (inactive)
same,GI50,SW-620,71.6 µM (inactive)
same,GI50,TK-10,88.3 µM (inactive)
same,GI50,U-251,> 100 µM (inactive)
same,GI50,UACC-257,> 100 µM (inactive)
same,GI50,UACC-62,68.1 µM (inactive)
same,GI50,UO-31,56.2 µM (inactive)
same,GI50,XF498,> 100 µM (inactive)
CC1=CC(C)(C)N=C2SC(c3ccc(Cl)cc3)=NN12,GI50,786-0,15.1 µM (inactive)
same,GI50,A498,25.8 µM (inactive)
same,GI50,A549,40 µM (inactive)
same,GI50,ACHN,27.9 µM (inactive)
same,GI50,CAKI-1,27.9 µM (inactive)
same,GI50,CCRF-CEM,28.2 µM (inactive)
same,GI50,COLO 205,41.1 µM (inactive)
same,GI50,DLD-1,19.5 µM (inactive)
same,GI50,DMS-114,23.5 µM (inactive)
same,GI50,DMS-273,38 µM (inactive)
same,GI50,EKVX,3.85 µM (inactive)
same,GI50,HCC 2998,25.6 µM (inactive)
same,GI50,HCT-15,25.4 µM
same,GI50,HL-60,12.2 µM (inactive)
same,GI50,HOP-18,21 µM (inactive)
same,GI50,HOP-62,54.3 µM (inactive)
same,GI50,HOP-92,27.4 µM (inactive)
same,GI50,HT-29,12 µM (inactive)
same,GI50,IGROV-1,> 100 µM (inactive)
same,GI50,K562,21.4 µM (inactive)
same,GI50,KM-20L2,22.5 µM (inactive)
same,GI50,KM12,26 µM (inactive)
same,GI50,LOX IMVI,40.1 µM (inactive)
same,GI50,LXFL 529,32.4 µM (inactive)
same,GI50,M14,30.5 µM (inactive)
same,GI50,M19-MEL,32 µM (inactive)
same,GI50,MOLT-4,14.9 µM (inactive)
same,GI50,Malme-3M,24.9 µM (inactive)
same,GI50,NCI-H226,21.1 µM (inactive)
same,GI50,NCI-H23,15.5 µM (inactive)
same,GI50,NCI-H460,29.2 µM (inactive)
same,GI50,NCI-H522,15.6 µM (inactive)
same,GI50,OVCAR-3,18.1 µM (inactive)
same,GI50,OVCAR-4,26.2 µM (inactive)
same,GI50,OVCAR-5,17.6 µM (inactive)
same,GI50,RPMI-8226,12.1 µM (inactive)
same,GI50,SF-268,27.5 µM (inactive)
same,GI50,SF-295,31.2 µM (inactive)
same,GI50,SF-539,31.6 µM (inactive)
same,GI50,SK-MEL-28,36.4 µM (inactive)
same,GI50,SK-MEL-2,43.6 µM (inactive)
same,GI50,SK-MEL-5,15.5 µM (inactive)
same,GI50,SK-OV-3,46.2 µM (inactive)
same,GI50,SNB-19,50.1 µM (inactive)
same,GI50,SNB-78,59.2 µM (inactive)
same,GI50,SW-620,32.1 µM (inactive)
same,GI50,TK-10,37 µM (inactive)
same,GI50,U-251,23 µM (inactive)
same,GI50,UACC-257,29.4 µM (inactive)
same,GI50,UACC-62,59.6 µM (inactive)
same,GI50,UO-31,19.8 µM (inactive)
same,GI50,XF498,14.2 µM (inactive)
CN(C)CCNC(=O)c1cccc2c1nc(-c1ccccc1)c1ccccc12,GI50,786-0,3.97 µM (inactive)
same,GI50,A498,0.91 µM (active)
same,GI50,A549,1.07 µM (active)
same,GI50,ACHN,2.88 µM (inactive)
same,GI50,CAKI-1,3.74 µM (inactive)
same,GI50,CCRF-CEM,1.61 µM (inactive)
same,GI50,COLO 205,3.48 µM (inactive)
same,GI50,DLD-1,2.33 µM (inactive)
same,GI50,DMS-273,2.91 µM (inactive)
same,GI50,EKVX,12.9 µM (inactive)
same,GI50,HCC 2998,3.82 µM (inactive)
same,GI50,HCT-116,2.69 µM (inactive)
same,GI50,HCT-15,2.68 µM
same,GI50,HL-60,1.26 µM (inactive)
same,GI50,HOP-18,14.7 µM (inactive)
same,GI50,HOP-62,4.27 µM (inactive)
same,GI50,HOP-92,2.83 µM (inactive)
same,GI50,HT-29,3.35 µM (inactive)
same,GI50,IGROV-1,3.16 µM (inactive)
same,GI50,K562,2.17 µM (inactive)
same,GI50,KM12,6.19 µM (inactive)
same,GI50,LOX IMVI,1.47 µM (inactive)
same,GI50,M14,2.07 µM (inactive)
same,GI50,M19-MEL,5.2 µM (inactive)
same,GI50,MOLT-4,0.323 µM (active)
same,GI50,NCI-H226,2.83 µM (inactive)
same,GI50,NCI-H23,6.65 µM (inactive)
same,GI50,NCI-H460,0.4 µM (active)
same,GI50,OVCAR-3,8.09 µM (inactive)
same,GI50,OVCAR-4,5.45 µM (inactive)
same,GI50,OVCAR-5,4.66 µM (inactive)
same,GI50,OVCAR-8,4.43 µM (inactive)
same,GI50,RXF 393,2.58 µM (inactive)
same,GI50,RXF 631,1.05 µM (active)
same,GI50,SF-268,5.79 µM (inactive)
same,GI50,SF-295,4.67 µM (inactive)
same,GI50,SF-539,2.19 µM (inactive)
same,GI50,SK-MEL-28,9.1 µM (inactive)
same,GI50,SK-MEL-2,11.1 µM (inactive)
same,GI50,SK-MEL-5,2.13 µM (inactive)
same,GI50,SK-OV-3,6.24 µM (inactive)
same,GI50,SN12C,3.01 µM (inactive)
same,GI50,SNB-19,11.3 µM (inactive)
same,GI50,SNB-75,6.76 µM (inactive)
same,GI50,SNB-78,10.4 µM (inactive)
same,GI50,SW-620,2.4 µM (inactive)
same,GI50,TK-10,3.93 µM (inactive)
same,GI50,U-251,5 µM (inactive)
same,GI50,UACC-257,1.73 µM (inactive)
same,GI50,UACC-62,11.9 µM (inactive)
same,GI50,UO-31,1.82 µM (inactive)
